The experiment deals with 677734-321-R-J1-PDC complex spheroid viability. As to the kind of experiment: Anticancer human tumor 677734-321-R-J1-PDC patient-derived soft tissue sarcoma cell line growth inhibition [POLQ]. Conditions: for viability, T/C: stronger effect = lower value. On the procedure:
Multicellular complex tumor spheroid response to Polymerase (POL) inhibitors (novobiocin, ART-558, RP6685) in combination with a variety of drugs and investigational agents in selected tumor cell lines
The POL inhibitors (novobiocin, ART-558, and RP6685) were evaluated both individually and in combination with standard of care and investigational anticancer small molecules within a complex spheroid model of solid tumors. . Complex spheroids include a stromal component modeled by human endothelial cells (HUVEC) and fibroblasts modeled by human mesenchymal stem cells (MSCs). The concentration ranges selected for each drug and investigational agent were based upon clinically achievable concentrations if the clinical Cmax of the agent was known.
Compounds. The drugs and investigational agents: novobiocin (NSC847541), ART-558 (NSC835418), RP-6685 (NSC848927), peposertib (NSC802822), ceralasertib (NSC780249), elimusertib (NSC800525), camonsertib (NSC841442), AZD-1390 (NSC803789), olaparib (NSC753686), talazoparib (NSC767125), rucaparib (NSC756644), sotorasib (NSC818433), MRTX-1133 (NSC836407), SN-38 (NSC673596), topotecan (NSC609699), epotoside (NSC141540), doxorubicin (NSC123127), gemcitabine (NSC613327), 5-fluorouracil (NSC19893), paclitaxel (NSC125973), vemurafenib (NSC761431), MSA-2 (NSC828583), SN-011 (NSC837082), adavosertib (NSC754352), prexasertib (NSC758257), carboplatin (NSC241240) and oxaliplatin (NSC266046), were obtained from the National Cancer Institute (NCI) Developmental Therapeutics Program Chemical Repository (21). The FDA-approved anticancer drug set is available from the Developmental Therapeutics Program at https://dtp.cancer.gov/organization/dscb/obtaining/. […] The stock solutions were prepared in dimethyl sulfoxide (DMSO, Sigma-Aldrich, St. Louis, MO, cat. D2650), except for the platinum compounds which were prepared in saline (Quality Biological, Gaithersburg, MD, cat. 114-055-101), at 800-fold the tested concentration and stored at -70 degrees C prior to their use. All drugs and investigational agents were tested over a range starting from a high concentration at or near the clinical Cmax and decreasing in half-log increments. If the clinical Cmax for an agent had not been determined, the highest concentration tested was 10 microM, except for SN-38, which was tested at a high concentration of 1 microM.
Cell Culture. All cells were maintained in an incubator at 37 degrees C and 5% CO2 with 95% humidity. The PDC lines were cultured according to standard operating procedures established by the NCI PDMR (https://pdmr.cancer.gov). Table 3 of the manuscript, lists the cell lines along with the number of the three cell types plated to form the mct-spheroids and media for tumor cell growth. After thawing, all PDC lines, except 997537-175-T-J1-PDC and 415267-285-R-J2-PDC, were cultured in Matrigel-coated flasks prepared with a working solution of 1X Ham's F-12 nutrient mix, without supplementation (Thermo Fisher Scientific, cat. 11765054), 100 U/mL penicillin-streptomycin (Thermo Fisher Scientific, cat. 15140122), and 2.5% Matrigel (Corning Inc., Corning, NY, cat. 354248) for the first three passages. The two PDC lines 997537-175-T-J1-PDC and 415267-285-R-J2-PDC were cultured on uncoated flasks. The 857933-349-R-J2-PDC line was cultured in 6C/Colon 1B media containing advanced DMEM/F-12 (Thermo Fisher Scientific, cat. 12634028), 10 mM HEPES (Thermo Fisher Scientific, cat. 15630080), 1X GlutaMAX supplement (Thermo Fisher Scientific, cat. 35050061), 0.1 mg/mL primocin (InvivoGen, San Diego, CA, cat. ant-pm-2), 10% defined fetal bovine serum, heat inactivated (HyClone Laboratories Inc., Logan, UT, cat. SH30070.03HI), 50% L-WRN conditioned media (ATCC, cat. CRL-3276), 1.25 mM N-Acetyl-L-cysteine (Sigma-Aldrich, cat. A9165), 10 mM nicotinamide (Sigma-Aldrich, cat. N0636), 1X B-27 supplement (Thermo Fisher Scientific, cat. 17504044), 1X N-2 supplement (Thermo Fisher Scientific, cat. […]

“And” between values parts separate entries of the source, which are not always exact repeats. Identical values can stand only once.
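Also: spheroids exposed to compounds for one week.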

As usually defined, the viability, T/C is the ratio of treated to control. Broadly, the IC50 is the concentration that gives 50% inhibition. In the case of `CC1COCCN1c1cc(C2(S(C)(=N)=O)CC2)nc(-c2ccnc3[nH]ccc23)n1` (configuration not stated), the viability, T/C (compound 0.0316 µM) was 109% and 103% and 113%; the viability, T/C (compound 0.1 µM) was 97.4% and 99.3% and 104%; the viability, T/C (compound 0.316 µM) was 92% and 80.2% and 107%; the viability, T/C (compound 1 µM) is 86.7% and 51.1% and 86.6%; the viability, T/C (compound 3.16 µM) is 60.8% and 28.3% and 55.8%; the viability, T/C (compound 10 µM) is 21.6% and 9.59% and 22.4%. Further, where the note is “curve of compound”, the IC50 was 4390 nM and 1130 nM and 3830 nM.

With `CC(C)n1c(=O)n(C)c2cnc3cc(F)c(-c4ccc(OCCCN5CCCCC5)nc4)cc3c21`, the viability, T/C was 104% and 96.1% and 15.7% (compound 0.0316 µM); 97.3% and 81.5% and 19.8% (compound 0.1 µM); 111% and 83.6% and 12.2% (compound 0.316 µM); 99.2% and 101% and 14.6% (compound 1 µM); 101% and 85.8% and 17.6% (compound 3.16 µM); 91% and 102% and 18.9% (compound 10 µM).

Turning to `O=C(Nc1ccc(O)c(NS(=O)(=O)c2ccc(F)cc2)c1)c1ccc(-c2ccccc2)cc1`, the viability, T/C is 96.9% and 104% and 110% (compound 0.0316 µM); 100% and 107% and 109% (compound 0.1 µM); 108% and 112% and 104% (compound 0.316 µM); 94.2% and 98.8% and 106% (compound 1 µM); 68.3% and 79.4% and 89.6% (compound 3.16 µM); 21.9% and 20.6% and 32.8% (compound 10 µM). For the same compound, for the setting “curve of compound”, the IC50 is 4960 nM and 5600 nM and 7070 nM.

For `COC1C(OC(N)=O)C(O)C(Oc2ccc3c(O)c(NC(=O)c4ccc(O)c(CC=C(C)C)c4)c(=O)oc3c2C)OC1(C)C` (configuration not stated), the viability, T/C (compound 0.0316 µM) is 103% [middle of 13 runs]; the viability, T/C (compound 0.1 µM) is 104% [middle of 13 runs]; the viability, T/C (compound 0.316 µM) is 110% [middle of 13 runs]; the viability, T/C (compound 1 µM) is 104% [middle of 13 runs]; the viability, T/C (compound 3.16 µM) is 106% [middle of 13 runs]; the viability, T/C (compound 10 µM) is 106% [middle of 13 runs]. In addition, where the note is “compound alone, run of 11/27/2023”, the IC50 is over 10000 nM.

On to `COc1cccc2c1C(=O)c1c(O)c3c(c(O)c1C2=O)CC(O)(C(=O)CO)CC3OC1CC(N)C(O)C(C)O1` (configuration not stated), for which the viability, T/C was 86.2% and 48.1% and 72.7% (compound 0.0316 µM); 48.5% and 29% and 48.7% (compound 0.1 µM); 8% and 4.1% and 6.65% (compound 0.316 µM); 0.91% and 1.65% (compound 1 µM); 2.59% and 1.37% and 2.03% (compound 3.16 µM); 3.4% and 0.66% and 2.59% (compound 10 µM). Also, the IC50 (curve of compound) is 95.6 nM and < 31.6 nM and 93.8 nM.

Consider `CC1COCCN1c1cc(-c2ccnn2C)c2ccnc(-c3ccn[nH]3)c2n1` (configuration not stated), for which the viability, T/C was 91.4% and 85.5% and 69.4% (compound 0.0316 µM); 60.5% and 56.2% and 22.1% (compound 0.1 µM); 24.4% and 21.4% and 10.8% (compound 1 µM); 19.7% and 6.39% and 9.44% (compound 3.16 µM); 18.5% and 17.1% and 9.19% (compound 10 µM). The IC50 (curve of compound) was 164 nM and 124 nM and 50.6 nM.

Turning to `Nc1ccn(C2OC(CO)C(O)C2(F)F)c(=O)n1` (configuration not stated), the viability, T/C runs as follows: (compound 0.0316 µM) 34.7% and 15.9% and 21.9%; (compound 0.1 µM) 14.8% and 10.8% and 14.6%; (compound 0.316 µM) 16.7% and 11.1% and 12.8%; (compound 1 µM) 14.4% and 10% and 14.7%; (compound 3.16 µM) 14.3% and 7.7% and 10.6%; (compound 10 µM) 12.5% and 6.81% and 8.93%. The concentration for half-maximal inhibition (IC50) (curve of compound) was under 31.6 nM.

The values are drawn from PubChem BioAssay AID1963842 (Molecular Pharmacology Branch, DTP, NCI, 2024).
